Consider one compound from patent publication US20100004171A1, “Therapeutic Methods for Neuropathic Pain” (priority 2006, published 2010).

Data set [1] relates to thermal hyperalgesia in allodynic rats. Description: Thermal hyperalgesia test (paw withdrawal latency) in CCI (Bennett) rats. In kind it is in vivo, rat.
Data set [2] has as its system tactile allodynia in allodynic rats. Kind of data set: Tactile allodynia test (von Frey filaments, paw withdrawal threshold) in CCI (Bennett model) rats. The class given is in vivo, rat. An excerpt:
Bennett Model: In this model, approximately 0.8 cm of the left sciatic nerve was exposed and freed with sharpened scissors at middle-thigh level as described by Bennett and Xie.^[76] Four ligatures were placed loosely around the sciatic nerve with 4-0 chromic catgut, with 1 mm space between the ties, which compresses the nerve but epineural blood circulation is preserved. The tissue and skin were closed in layers. […] Most allodynia was seen during the time period of 7-14 days after the surgery.
Intrathecal catheter installation: A PE10 catheter, stretched to a somewhat thinner diameter in the distal part, was introduced into the spinal canal (subarachnoid space) via a 21 G (gauge) cannula between the L5 and L6 lamina and advanced to the lumbar enlargement in rats. The proximal part was tunneled under the skin and led out on the upper dorsal region. The location of the catheter was verified by the injection of 6 μl (50 mg/ml) xylocalne, such that a transient, flaccid paralysis of the legs was produced, and by X-ray after administration of 10 μl iodine contrast medium (Astra, Sweden). The catheter could be kept for up to two weeks in animals.^[79]
The maximum volume injected at any one time was 10 μl.^[79]
Tactile allodynia test: In a transparent glass chamber (20×20 cm) with a mesh net floor, each animal was subjected to the tactile allodynia test. A positive response is when an innocuous tactile stimulus induces a brief paw withdrawal away from the stimulation, similar to a paw withdrawal due to heat. A set of von Frey filaments from 0.01 to 28 g (Stoelting Co., Wood Dale, Ill.) were applied to the mid-paw of the allodynic rats at 1 gram, and then progressing up or down. The filament was pressed against the plantar surface for 1 to 2 seconds until it bent. Subsequent applications were made with a higher or lower von Frey filament depending on the animal response. The testing always began with normal paws. If a filament induced a brief paw withdrawal of a paw without bending in three out of five tests, the size of the filament was recorded as eliciting a positive withdrawal threshold.^[80] Allodynia was considered to be present when a withdrawal threshold was evoked by a filament corresponding to 8 grams or less.
In rats with tactile allodynia (a withdrawal threshold with a filament below 8 g), an intrathecal catheter (PE 10) was installed and linked to an osmotic pump (Alzet) in a 37° C. water bath. Following a bolus injection of SCP-1 (30 nmol/kg, 10 μl), agrin siRNA (100 nM) was intrathecally administered continuously by the pump at a rate of 5 μl/1 hour for 4 hr. The animals were subjected to von Frey filament test every 15 min for 4 hr to determine whether the effects of SCP-1 on allodynia suppression are blocked by agrin siRNA. A control siRNA (nFsiRNA) was applied in the same way. The behavioral data was analyzed for agrin effects. Immediately after behavioral experiments, the animals were sacrificed and subjected to protein extraction of lumbar spinal cord, followed by Western-blot analysis as described above.
A blind test was designed for intrathecal drug evaluations. Five days after CCI, rats were subjected to tactile allodynia tests with von Frey filaments. If a filament corresponding to 8 grams or less evoked a withdrawal response on the rat paw (at least 3 responses out of 5 stimuli), the value was designated as the allodynia threshold. […] Either a drug (100 nmol in 10 μl saline) or vehicle (only 10 μl saline) was pre-warmed and intrathecally injected into the allodynic rats. Then the rats were assayed for changes in allodynic and hyperalgesic behavior, agrin gene expression, and agrin protein changes. In addition, distribution and amount of agrin in the dorsal horn were visualized using immunostaining of L5 as reported above in Example 7.

Data set [3] relates to nociceptive pain. Conditions: cited from earlier work.

As to `O=C(CN1C(=O)c2ccccc2S1(=O)=O)Nc1ccc(O)cc1` [SCP-1], the “increase in paw-withdrawal latency (thermal hyperalgesia)” value in data set [1] (intrathecal 100 nmol in 10 μl, CCI (Bennett) rat model) came to 80%. In addition, the “effect on paw-withdrawal latency at 120 min post injection” value in data set [1] (intrathecal 100 nmol, 120 min) is “still apparent”. The “time to normalized withdrawal threshold” value in data set [2] (Example 9: SCP-1 alone) is recorded as “about one hour after injection”. Also, in data set [2] (Example 9: injected 7 days after CCI, SCP-1 alone, up to 4 h), the “effect on withdrawal threshold” value is recorded as “normalized the withdrawal threshold”. Further, in data set [2] (intrathecal 100 nmol in 10 μl), the “duration of effect on withdrawal threshold” value is “up to 8 hr” and the “time to normal withdrawal threshold” value is reported as “about an hour after injection”. The “effect on paw-withdrawal threshold” value in data set [2] (intrathecal 100 nmol in 10 μl in allodynic rats, day 7 after injury, up to 8 hr) is listed as “raised the withdrawal threshold to normal values”. In addition, the “effect on tactile allodynia” value in data set [2] (intrathecal 100 nmol, day 7 after injury) is on record as “suppressed the tactile allodynia”. For the same compound, the “effect on nociceptive pain” value in data set [3] (formalin- and CFA-induced, rodent models, without any toxicity) is “suppressed formalin- and CFA-induced nociceptive pain”. Also, the “acute liver or kidney toxicity” value in data set [3] (while relieving nociceptive pain) is listed as “without acute liver or kidney toxicity”.
